Reference: PMC10535318, “Benzimidazole-Based Schiff Base Hybrid Scaffolds: A Promising Approach to Develop Multi-Target Drugs for Alzheimer’s Disease” (Pharmaceuticals, 2023)
Where two headings read alike, the source gives them in different places.

What was measured:
[1] = target: T1, acetylcholinesterase (AChE) (Homo sapiens, UniProt P22303); experiment: biochemical
T1 construct: purchased Sigma-Aldrich (Steinheim, Germany)
Method: (§1) All chemicals and reagents employed in the study were obtained from Merck or Sigma-Aldrich (St. Louis, MO, USA) (Darmstadt, Germany). Acetylcholinesterase (E.C.3.1.1.7) and butyrylcholinesterase (E.C. 3.1.1.8) were procured from Sigma–Aldrich (Steinheim, Germany). The ^1H NMR and ^13C NMR spectra were recorded using a Bruker FT-NMR spectrometer operating at the digital frequencies of 600 and 150 MHz (Bioscience, Bruker, Billerica, MA, USA). Mass spectra were acquired utilizing a Shimadzu LCMS-IT-TOF system (Kyoto, Japan) employing the electrospray ionization (ESI) technique. The purity of synthesized derivatives was checked through thin-layer chromatography using silica gel 60 F254 (Merck, KGaA, Darmstadt, Germany).
(§2) The study was carried out following the guidelines outlined in our previously published study.

[2] = target: T2, butyrylcholinesterase (BuChE) (Homo sapiens, UniProt P06276); experiment: biochemical
T2 construct: purchased Sigma-Aldrich (Steinheim, Germany)
Method: as §1, §2

[3] = in vitro, value ± standard error mean, read-out: AChE Inhibition IC50 ± SEM
[4] = in vitro, value ± standard error mean, read-out: BuChE Inhibition IC50 ± SEM

T2 sequence (P06276 29-602): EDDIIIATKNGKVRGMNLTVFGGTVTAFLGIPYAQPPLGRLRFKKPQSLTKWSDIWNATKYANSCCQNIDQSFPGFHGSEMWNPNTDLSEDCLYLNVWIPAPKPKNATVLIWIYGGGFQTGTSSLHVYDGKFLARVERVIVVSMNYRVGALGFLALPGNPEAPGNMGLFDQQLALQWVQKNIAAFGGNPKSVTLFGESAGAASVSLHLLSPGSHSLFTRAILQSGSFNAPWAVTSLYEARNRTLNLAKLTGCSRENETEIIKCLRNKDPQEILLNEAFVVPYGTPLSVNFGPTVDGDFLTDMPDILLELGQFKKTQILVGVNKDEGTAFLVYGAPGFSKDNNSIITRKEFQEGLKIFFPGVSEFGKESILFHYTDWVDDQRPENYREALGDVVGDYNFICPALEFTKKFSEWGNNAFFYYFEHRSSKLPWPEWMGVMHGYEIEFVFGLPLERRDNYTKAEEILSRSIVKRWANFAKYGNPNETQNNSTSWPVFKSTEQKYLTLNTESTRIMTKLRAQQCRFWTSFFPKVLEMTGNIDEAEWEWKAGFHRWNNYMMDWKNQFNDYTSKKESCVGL
T1 sequence (P22303 32-614, species assumed): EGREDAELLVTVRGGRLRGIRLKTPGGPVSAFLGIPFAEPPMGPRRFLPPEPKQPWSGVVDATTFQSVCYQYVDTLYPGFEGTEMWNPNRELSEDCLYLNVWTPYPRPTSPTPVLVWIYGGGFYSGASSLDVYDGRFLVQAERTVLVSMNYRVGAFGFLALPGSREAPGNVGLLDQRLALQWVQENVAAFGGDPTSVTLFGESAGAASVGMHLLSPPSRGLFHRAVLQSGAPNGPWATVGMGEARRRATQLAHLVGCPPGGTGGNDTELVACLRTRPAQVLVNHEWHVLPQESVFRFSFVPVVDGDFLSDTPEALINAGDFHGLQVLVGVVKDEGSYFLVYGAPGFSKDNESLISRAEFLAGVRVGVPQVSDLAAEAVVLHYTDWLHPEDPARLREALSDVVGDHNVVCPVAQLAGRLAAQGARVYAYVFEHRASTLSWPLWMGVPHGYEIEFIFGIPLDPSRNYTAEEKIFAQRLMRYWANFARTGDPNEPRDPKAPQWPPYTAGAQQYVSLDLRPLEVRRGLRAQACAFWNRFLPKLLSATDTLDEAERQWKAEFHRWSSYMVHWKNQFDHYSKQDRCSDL

| SMILES | IC50 [1] [µM] | IC50 [2] [µM] | IC50 [1, 3] [µM] | IC50 [2, 4] [µM] |
| --- | --- | --- | --- | --- |
| Cc1cc([N+](=O)[O-])ccc1/C(CSc1nc2ccccc2[nH]1)=N/C1=CC=C(Nc2ccc([N+](=O)[O-])cc2O)C1 [Compound 2, (Z)-2-((4-((2-((1H-benzo[d]imidazol-2-yl)thio)-1-(2-methyl-4-nitrophenyl)ethylidene)amino)cyclopenta-1,3-dien-1-yl)amino)-5-nitrophenol] | 199 ± 10.2 | 204 ± 8.2 |  |  |
| O=[N+]([O-])c1ccc(NC2=CC=C(/N=C(\CSc3nc4ccccc4[nH]3)c3ccc(Cl)c(Cl)c3)C2)c(O)c1 [Compound 5, (Z)-2-((4-((2-((1H-benzo[d]imidazol-2-yl)thio)-1-(3,4-dichlorophenyl)ethylidene)amino)cyclopenta-1,3-dien-1-yl)amino)-5-nitrophenol] |  |  | 169 ± 7.7 | 179 ± 6.7 |
| O=[N+]([O-])c1ccc(/C(CSc2nc3ccccc3[nH]2)=N/C2=CC=C(Nc3cccc([N+](=O)[O-])c3)C2)cc1 [Compound 11, (Z)-N-(4-((2-((1H-benzo[d]imidazol-2-yl)thio)-1-(4-nitrophenyl)ethylidene)amino)cyclopenta-1,3-dien-1-yl)-3-nitroaniline] | 268 ± 11.7 | 274 ± 9.1 |  |  |
| Cc1ccccc1/C(CSc1nc2ccccc2[nH]1)=N/C1=CC=C(Nc2cccc([N+](=O)[O-])c2)C1 [Compound 14, (Z)-N-(4-((2-((1H-benzo[d]imidazol-2-yl)thio)-1-(o-tolyl)ethylidene)amino)cyclopenta-1,3-dien-1-yl)-3-nitroaniline] |  |  | 289 ± 11.5 | 311 ± 12.3 |
| O=[N+]([O-])c1ccc(/C(CSc2nc3ccccc3[nH]2)=N/C2=CC=C(Nc3ccc([N+](=O)[O-])cc3O)C2)cc1 [Compound 1, (Z)-2-((4-((2-((1H-benzo[d]imidazol-2-yl)thio)-1-(4-nitrophenyl)ethylidene)amino)cyclopenta-1,3-dien-1-yl)amino)-5-nitrophenol] | 214 ± 11.6 | 249 ± 10.9 |  |  |
| O=[N+]([O-])c1cccc(NC2=CC=C(/N=C(\CSc3nc4ccccc4[nH]3)c3ccc([N+](=O)[O-])cc3Br)C2)c1 [Compound 18, (Z)-N-(4-((2-((1H-benzo[d]imidazol-2-yl)thio)-1-(2-bromo-4-nitrophenyl)ethylidene)amino)cyclopenta-1,3-dien-1-yl)-3-nitroaniline] | 214 ± 8.2 | 247 ± 9.1 |  |  |
| O=[N+]([O-])c1cccc(NC2=CC=C(/N=C(\CSc3nc4ccccc4[nH]3)c3ccccc3Br)C2)c1 [Compound 17, (Z)-N-(4-((2-((1H-benzo[d]imidazol-2-yl)thio)-1-(2-bromophenyl)ethylidene)amino)cyclopenta-1,3-dien-1-yl)-3-nitroaniline] |  |  | 234 ± 10.1 | 269 ± 9.6 |
| Cc1ccc(/C(CSc2nc3ccccc3[nH]2)=N/C2=CC=C(Nc3ccc([N+](=O)[O-])cc3O)C2)cc1 [Compound 4, (Z)-2-((4-((2-((1H-benzo[d]imidazol-2-yl)thio)-1-(p-tolyl)ethylidene)amino)cyclopenta-1,3-dien-1-yl)amino)-5-nitrophenol] |  |  | 274 ± 7.6 | 285 ± 8.2 |
| O=[N+]([O-])c1ccc(NC2=CC=C(/N=C(\CSc3nc4ccccc4[nH]3)c3ccccc3[N+](=O)[O-])C2)c(O)c1 [Compound 3, (Z)-2-((4-((2-((1H-benzo[d]imidazol-2-yl)thio)-1-(2-nitrophenyl)ethylidene)amino)cyclopenta-1,3-dien-1-yl)amino)-5-nitrophenol] | 124 ± 10.2 | 131 ± 9.7 |  |  |
| O=[N+]([O-])c1ccc(NC2=CC=C(/N=C(\CSc3nc4ccccc4[nH]3)c3ccccc3Br)C2)c(O)c1 [Compound 7, (Z)-2-((4-((2-((1H-benzo[d]imidazol-2-yl)thio)-1-(2-bromophenyl)ethylidene)amino)cyclopenta-1,3-dien-1-yl)amino)-5-nitrophenol] |  |  | 314 ± 12.8 | 326 ± 13.1 |
| O=[N+]([O-])c1ccc(NC2=CC=C(/N=C(\CSc3nc4ccccc4[nH]3)c3ccc([N+](=O)[O-])cc3Br)C2)c(O)c1 [Compound 6, (Z)-2-((4-((2-((1H-benzo[d]imidazol-2-yl)thio)-1-(2-bromo-4-nitrophenyl)ethylidene)amino)cyclopenta-1,3-dien-1-yl)amino)-5-nitrophenol] | 226 ± 10.1 | 274 ± 13.8 |  |  |
| Cc1ccccc1/C(CSc1nc2ccccc2[nH]1)=N/C1=CC=C(Nc2ccc([N+](=O)[O-])cc2O)C1 [Compound 8, (Z)-2-((4-((2-((1H-benzo[d]imidazol-2-yl)thio)-1-(o-tolyl)ethylidene)amino)cyclopenta-1,3-dien-1-yl)amino)-5-nitrophenol] |  |  | 291 ± 12.6 | 304 ± 13.8 |
| Cc1cc([N+](=O)[O-])ccc1/C(CSc1nc2ccccc2[nH]1)=N/C1=CC=C(Nc2cccc([N+](=O)[O-])c2)C1 [Compound 15, (Z)-N-(4-((2-((1H-benzo[d]imidazol-2-yl)thio)-1-(2-methyl-4-nitrophenyl)ethylidene)amino)cyclopenta-1,3-dien-1-yl)-3-nitroaniline] | 217 ± 8.28 | 221 ± 8.7 |  |  |
| Cc1ccc(/C(CSc2nc3ccccc3[nH]2)=N/C2=CC=C(Nc3cccc([N+](=O)[O-])c3)C2)cc1 [Compound 12, (Z)-N-(4-((2-((1H-benzo[d]imidazol-2-yl)thio)-1-(p-tolyl)ethylidene)amino)cyclopenta-1,3-dien-1-yl)-3-nitroaniline] |  |  | 308 ± 8.8 | 318 ± 9.8 |
| O=[N+]([O-])c1ccc(NC2=CC=C(/N=C(\CSc3nc4ccccc4[nH]3)c3ccccc3)C2)c(O)c1 [Compound 10, (Z)-2-((4-((2-((1H-benzo[d]imidazol-2-yl)thio)-1-phenylethylidene)amino)cyclopenta-1,3-dien-1-yl)amino)-5-nitrophenol] |  |  | 343 ± 10.6 | 376 ± 12.8 |
| COc1ccc(/C(CSc2nc3ccccc3[nH]2)=N/C2=CC=C(Nc3cccc([N+](=O)[O-])c3)C2)cc1O [Compound 9, (Z)-5-(2-((1H-benzo[d]imidazol-2-yl)thio)-1-((4-((3-nitrophenyl)amino)cyclopenta-1,3-dien-1-yl)imino)ethyl)-2-methoxyphenol] |  |  | 174 ± 6.76 | 181 ± 8.5 |
| Cc1cccc(/C(CSc2nc3ccccc3[nH]2)=N/C2=CC=C(Nc3cccc([N+](=O)[O-])c3)C2)c1 [Compound 13, (Z)-N-(4-((2-((1H-benzo[d]imidazol-2-yl)thio)-1-(m-tolyl)ethylidene)amino)cyclopenta-1,3-dien-1-yl)-3-nitroaniline] |  |  | 321 ± 13.5 | 354 ± 12.7 |
